# Data published in patent US20110294778A1, “HEPATITIS C INHIBITOR COMPOUNDS” (priority 2009, published 2011).
# What was measured:
# [1] = tested on: HCV genotype 1a (strain H77) subgenomic replicon with NS3 resistance mutation R155K in Huh-7 cells; experiment: HCV replicon RNA replication assay (NS3 protease variants), genotype 1a R155K; format: cell-based; conditions: Hepatitis C virus, Huh-7, 72 h, read-out: R155K 1a EC50 (nM)
# [2] = tested on: HCV genotype 1b (Con-1) subgenomic replicon with NS3 resistance mutation D168V in Huh-7 cells; experiment: HCV replicon RNA replication assay (NS3 protease variants), genotype 1b D168V; format: cell-based; conditions: Hepatitis C virus, Huh-7, 72 h, read-out: D168V 1b EC50 (nM)
SMILES,EC50 [1] [nM],EC50 [2] [nM]
"COc1ccc2c(O[C@@H]3C[C@H]4C(=O)N[C@]5(C(=O)NS(=O)(=O)C6(C)CC6)C[C@H]5/C=C\CCCCC[C@H](NC(=O)N5CC(C)(O)C5)C(=O)N4C3)cc(OC(C)C)nc2c1C [Compound 2013, (2R,6S,12Z,13aS,14aR,16aS)-6-{[(3-hydroxy-3-methylazetidin-1-yl)carbonyl]amino}-2-{[7-methoxy-8-methyl-2-(propan-2-yloxy)quinolin-4-yl]oxy}-N-[(1-methylcyclopropyl)sulfonyl]-5,16-dioxo-1,2,3,6,7,8,9,10,11,13a,14,15,16,16a-tetradecahydrocyclopropa[e]pyrrolo[1,2-a][1,4]diazacyclopentadecine-14a(5H)-carboxamide]",6.5,3.3
"COc1ccc2c(O[C@@H]3C[C@H]4C(=O)N[C@]5(C(=O)NS(=O)(=O)C6CC6)C[C@H]5/C=C\CCCCC[C@H](NC(=O)c5ccn(C)n5)C(=O)N4C3)cc(OC(C)C)nc2c1C [Compound 1003, (2R,6S,12Z,13aS,14aR,16aS)-N-(cyclopropylsulfonyl)-2-{[7-methoxy-8-methyl-2-(propan-2-yloxy)quinolin-4-yl]oxy}-6-{[(1-methyl-1H-pyrazol-3-yl)carbonyl]amino}-5,16-dioxo-1,2,3,6,7,8,9,10,11,13a,14,15,16,16a-tetradecahydrocyclopropa[e]pyrrolo[1,2-a][1,4]diazacyclopentadecine-14a(5H)-carboxamide]",4.3,0.29
"COc1ccc2c(O[C@@H]3C[C@H]4C(=O)N[C@]5(C(=O)NS(=O)(=O)C6CC6)C[C@H]5/C=C\CCCCC[C@H](NC(=O)c5cnn(C)n5)C(=O)N4C3)cc(OC(C)C)nc2c1C [Compound 1013, (2R,6S,12Z,13aS,14aR,16aS)-N-(cyclopropylsulfonyl)-2-{[7-methoxy-8-methyl-2-(propan-2-yloxy)quinolin-4-yl]oxy}-6-{[(2-methyl-2H-1,2,3-triazol-4-yl)carbonyl]amino}-5,16-dioxo-1,2,3,6,7,8,9,10,11,13a,14,15,16,16a-tetradecahydrocyclopropa[e]pyrrolo[1,2-a][1,4]diazacyclopentadecine-14a(5H)-carboxamide]",7.8,0.52
"COc1ccc2c(O[C@@H]3C[C@H]4C(=O)N[C@]5(C(=O)NS(=O)(=O)C6(C)CC6)C[C@H]5/C=C\CCCCC[C@H](NC(=O)c5ccn(C)n5)C(=O)N4C3)cc(OC3CCC3)nc2c1C [Compound 1022, (2R,6S,12Z,13aS,14aR,16aS)-2-{[2-(cyclobutyloxy)-7-methoxy-8-methylquinolin-4-yl]oxy}-N-[(1-methylcyclopropyl)sulfonyl]-6-{[(1-methyl-1H-pyrazol-3-yl)carbonyl]amino}-5,16-dioxo-1,2,3,6,7,8,9,10,11,13a,14,15,16,16a-tetradecahydrocyclopropa[e]pyrrolo[1,2-a][1,4]diazacyclopentadecine-14a(5H)-carboxamide]",6.8,0.24
"COc1ccc2c(O[C@@H]3C[C@H]4C(=O)N[C@]5(C(=O)NS(=O)(=O)C6CC6)C[C@H]5/C=C\CCCCC[C@H](NC(=O)c5ccn(C(F)F)n5)C(=O)N4C3)cc(OC(C)C)nc2c1C [Compound 1027, (2R,6S,12Z,13aS,14aR,16aS)-N-(cyclopropylsulfonyl)-6-({[1-(difluoromethyl)-1H-pyrazol-3-yl]carbonyl}amino)-2-{[7-methoxy-8-methyl-2-(propan-2-yloxy)quinolin-4-yl]oxy}-5,16-dioxo-1,2,3,6,7,8,9,10,11,13a,14,15,16,16a-tetradecahydrocyclopropa[e]pyrrolo[1,2-a][1,4]diazacyclopentadecine-14a(5H)-carboxamide]",8.4,0.35
"CCOc1cc(O[C@@H]2C[C@H]3C(=O)N[C@]4(C(=O)NS(=O)(=O)C5(C)CC5)C[C@H]4/C=C\CCCCC[C@H](NC(=O)c4ccn(C)n4)C(=O)N3C2)c2ccc(OC)c(C)c2n1 [Compound 1030, (2R,6S,12Z,13aS,14aR,16aS)-2-[(2-ethoxy-7-methoxy-8-methylquinolin-4-yl)oxy]-N-[(1-methylcyclopropyl)sulfonyl]-6-{[(1-methyl-1H-pyrazol-3-yl)carbonyl]amino}-5,16-dioxo-1,2,3,6,7,8,9,10,11,13a,14,15,16,16a-tetradecahydrocyclopropa[e]pyrrolo[1,2-a][1,4]diazacyclopentadecine-14a(5H)-carboxamide]",6.3,0.38
"CCOc1cc(O[C@@H]2C[C@H]3C(=O)N[C@]4(C(=O)NS(=O)(=O)C5(C)CC5)C[C@H]4/C=C\CCCCC[C@H](NC(=O)N4CC(F)C4)C(=O)N3C2)c2ccc(OC)c(C)c2n1 [Compound 2014, (2R,6S,12Z,13aS,14aR,16aS)-2-[(2-ethoxy-7-methoxy-8-methylquinolin-4-yl)oxy]-6-{[(3-fluoroazetidin-1-yl)carbonyl]amino}-N-[(1-methylcyclopropyl)sulfonyl]-5,16-dioxo-1,2,3,6,7,8,9,10,11,13a,14,15,16,16a-tetradecahydrocyclopropa[e]pyrrolo[1,2-a][1,4]diazacyclopentadecine-14a(5H)-carboxamide]",8.4,0.53
"COc1ccc2c(O[C@@H]3C[C@H]4C(=O)N[C@]5(C(=O)NS(=O)(=O)C6(C)CC6)C[C@H]5/C=C\CCCCC[C@H](NC(=O)c5ccc(C)s5)C(=O)N4C3)cc(OC(C)C)nc2c1C [Compound 1004, (2R,6S,12Z,13aS,14aR,16aS)-2-{[7-methoxy-8-methyl-2-(propan-2-yloxy)quinolin-4-yl]oxy}-N-[(1-methylcyclopropyl)sulfonyl]-6-{[(5-methylthiophen-2-yl)carbonyl]amino}-5,16-dioxo-1,2,3,6,7,8,9,10,11,13a,14,15,16,16a-tetradecahydrocyclopropa[e]pyrrolo[1,2-a][1,4]diazacyclopentadecine-14a(5H)-carboxamide]",2.8,0.22
"COc1ccc2c(O[C@@H]3C[C@H]4C(=O)N[C@]5(C(=O)NS(=O)(=O)C6CC6)C[C@H]5/C=C\CCCCC[C@H](NC(=O)c5ccc(C)s5)C(=O)N4C3)cc(OC(C)C)nc2c1C [Compound 1007, (2R,6S,12Z,13aS,14aR,16aS)-N-(cyclopropylsulfonyl)-2-{[7-methoxy-8-methyl-2-(propan-2-yloxy)quinolin-4-yl]oxy}-6-{[(5-methylthiophen-2-yl)carbonyl]amino}-5,16-dioxo-1,2,3,6,7,8,9,10,11,13a,14,15,16,16a-tetradecahydrocyclopropa[e]pyrrolo[1,2-a][1,4]diazacyclopentadecine-14a(5H)-carboxamide]",,0.25
"COc1ccc2c(O[C@@H]3C[C@H]4C(=O)N[C@]5(C(=O)NS(=O)(=O)C6CC6)C[C@H]5/C=C\CCCCC[C@H](NC(=O)c5cc[nH]n5)C(=O)N4C3)cc(OC(C)C)nc2c1C [Compound 1016, (2R,6S,12Z,13aS,14aR,16aS)-N-(cyclopropylsulfonyl)-2-{[7-methoxy-8-methyl-2-(propan-2-yloxy)quinolin-4-yl]oxy}-5,16-dioxo-6-[(1H-pyrazol-3-ylcarbonyl)amino]-1,2,3,6,7,8,9,10,11,13a,14,15,16,16a-tetradecahydrocyclopropa[e]pyrrolo[1,2-a][1,4]diazacyclopentadecine-14a(5H)-carboxamide]",,0.92
